Assay results taken from the supplement of paper PMC12317010.
Structures can show the parent of a compound that is named as a salt.

Assay: collision cross section in nitrogen (drift tube, single-field); higher = larger gas-phase ion size
[1] = ion type: [M+H], ion source: APCI, ion mode: Positive
[2] = ion type: [M+H], ion source: ESI, ion mode: Positive
[3] = ion type: [M+Na], ion source: ESI, ion mode: Positive
[4] = ion type: [M-H], ion source: ESI, ion mode: Negative
[5] = ion type: [M+], ion source: APCI, ion mode: Positive
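Further: chemical standards at 10 µM analysed by drift tube IMS-QTOF MS in about 3.95 torr nitrogen, mean of duplicate injections differing ≤1%, mass error below 10 ppm.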

| Compound | collision cross section in nitrogen [1] [Å²] | collision cross section in nitrogen [2] [Å²] | collision cross section in nitrogen [3] [Å²] | collision cross section in nitrogen [4] [Å²] | collision cross section in nitrogen [5] [Å²] |
| --- | --- | --- | --- | --- | --- |
| O=c1cc(-c2ccccc2)oc2ccc3ccccc3c12 [5,6-Benzoflavone] | 160.8 | 160.2 | 181.8 | – | – |
| O=[N+]([O-])c1ccc(-c2nnc(O)o2)o1 [5-(5-Nitro-2-furyl)-1,3,4-oxadiazole-2-ol] | – | – | – | 135.2 | – |
| Cc1ccc(N)cc1O [5-Amino-2-methylphenol] | – | 123.5 | – | – | – |
| S=c1[nH]c2cc(Cl)ccc2s1 [5-Chloro-1,3-benzothiazole-2(3H)-thione] | – | – | – | 133.3 | – |
| Clc1ccc2[nH]nnc2c1 [5-Chlorobenzotriazole] | – | 128.5 | – | 123.2 | – |
| O=C(Nc1ccccc1)c1cc(Cl)ccc1O [5-Chlorosalicylanilide] | – | – | – | 151.9 | – |
| Cc1ccc2[nH]nnc2c1 [5-Methyl-1H-benzotriazole] | 125.1 | 124.8 | – | 125.2 | – |
| Cc1cccc2nccnc12 [5-Methylquinoxaline] | 126.5 | – | – | – | – |
| O=[N+]([O-])c1ccc2[nH]c(S)nc2c1 [5-Nitro-2-mercaptobenzimidazole] | – | – | – | 133.6 | – |
| c1ccc(-c2nnn[nH]2)cc1 [5-Phenyl-1H-tetrazole] | – | – | – | 127.7 | – |
| CC(C)c1ccc2ncccc2c1 [6-(1-Methylethyl)quinoline] | 138 | 138.5 | – | – | – |
| Nc1ccc2cc(S(=O)(=O)O)ccc2c1 [6-Aminonaphthalene-2-sulfonic acid] | – | – | – | 150.3 | – |
| O=c1[nH]c2ccc(Cl)cc2o1 [6-Chloro-2,3-dihydrobenzoxazol-2-one] | – | – | – | 125.6 | – |
| Oc1ccc2cc(SSc3ccc4cc(O)ccc4c3)ccc2c1 [6-Hydroxy-2-naphthyl disulfide] | – | – | – | 185.8 | – |
| Oc1cccc(O)n1 [6-Hydroxy-2-oxopyridinium chloride] | – | 120.2 | – | 115 | – |
| COc1ccc2nc(N)sc2c1 [6-Methoxy-2-benzothiazolamine] | 136.6 | 136.6 | – | – | – |
| Cc1cccc(N)n1 [6-Methylpyridin-2-amine] | 118.6 | 119.5 | – | – | – |
| Cc1ccc2ncccc2c1 [6-Methylquinoline] | 125.7 | 125.8 | – | – | 124.3 |

| Compound | collision cross section in nitrogen [1] [Å²] | collision cross section in nitrogen [2] [Å²] | collision cross section in nitrogen [3] [Å²] | collision cross section in nitrogen [4] [Å²] | collision cross section in nitrogen [5] [Å²] |
| --- | --- | --- | --- | --- | --- |
| O=[N+]([O-])c1ccc2[nH]cnc2c1 [6-Nitrobenzimidazole] | 136.5 | 136.5 | – | 123.6 | – |
| Nc1nc(N)nc(-c2ccccc2)n1 [6-Phenyl-1,3,5-triazine-2,4-diamine] | 140.2 | 140.6 | – | – | – |
| Nc1nc2nc[nH]c2c(=S)[nH]1 [6-Thioguanine] | 132.4 | 133.4 | 142.3 | 128.9 | – |
| NC(=O)c1ccc(N)nc1 [6-aminopyridine-3-carboxamide] | 130.2 | 131.3 | – | 124.5 | – |
| O=[PH]1Oc2ccccc2-c2ccccc21 (stereo not given) [6H-Dibenzo[c,e][1,2]oxaphosphinine 6-oxide] | – | 146.1 | – | 145.8 | – |
| O=C1c2ccccc2C(=O)c2c1ccc1ccccc21 [7,12-Benz(a)anthraquinone] | – | – | – | 155.7 | – |
| Cc1c2ccccc2c(C)c2c1ccc1ccccc12 [7,12-Dimethylbenz[a]anthracene] | – | – | – | – | 155.2 |
| CCCCC(CC)CCC(CC(C)C)OS(=O)(=O)O (stereo not given) [7-Ethyl-2-methyl-4-undecanolsulfate, sodium salt] | – | – | – | 175.2 | – |
| Nc1c2ccccc2nc2ccccc12 [9-Aminoacridine hydrochloride monohydrate] | 138.8 | 138.9 | – | 139.3 | 139 |
| O=[N+]([O-])c1c2ccccc2cc2ccccc12 [9-Nitroanthracene] | 145.5 | – | – | 145.1 | – |
| Oc1cc2ccccc2c2ccccc12 [9-Phenanthrol] | – | – | – | 140.7 | – |
| CC(C)CCCCCCCCCCCCCCC(=O)O [16-Methylheptadecanoic acid] | – | – | – | 177.5 | – |
| C[C@]12CCC(=O)C=C1CC[C@@H]1[C@@H]2CC[C@@]2(C)[C@H]1CC[C@]2(C)O [17-Methyltestosterone] | – | 177.6 | – | – | – |
| C[C@]12C=CC3=C4CCC(=O)C=C4CC[C@H]3[C@@H]1CC[C@@H]2O [17beta-Trenbolone] | 166.2 | 166.4 | 192.3 | 168.7 | – |
| C/C=C/C=C/CO [(2E,4E)-Hexa-2,4-dien-1-ol] | – | – | – | – | 117.4 |
| CNC[C@H](O)[C@@H](O)[C@H](O)[C@H](O)CO [(2R,3R,4R,5S)-6-(Methylamino)hexane-1,2,3,4,5-pentol] | 141 | 141.3 | 147.7 | 140.4 | – |
| CC(Cc1ccc(C(C)(C)C)cc1)CN1C[C@@H](C)O[C@@H](C)C1 (stereo partly drawn) [(2R,6S)-Fenpropimorph] | 173.1 | 173.5 | – | – | – |
| Nc1ccc([As](=O)(O)O)cc1 [(4-Aminophenyl)arsonic acid] | – | 130.9 | 144.9 | 139 | – |

Further lines, results first:

| collision cross section in nitrogen [1] [Å²] | collision cross section in nitrogen [2] [Å²] | collision cross section in nitrogen [3] [Å²] | collision cross section in nitrogen [4] [Å²] | collision cross section in nitrogen [5] [Å²] | Compound |
| --- | --- | --- | --- | --- | --- |
| 139.1 | 139.6 | – | – | – | COc1cc(OC)c2ccc(=O)oc2c1 [5,7-Dimethoxy-2H-chromen-2-one] |
| – | – | – | 137.7 | – | Cc1ccc(N)cc1S(=O)(=O)O [5-Amino-2-methylbenzenesulfonic acid] |
| – | – | – | 127.8 | – | Nc1ccc(O)c(C(=O)O)c1 [5-Aminosalicylic acid] |
| – | – | – | 164.6 | – | O=C(Nc1ccc([N+](=O)[O-])cc1Cl)c1cc(Cl)ccc1O [5-Chloro-N-(2-chloro-4-nitrophenyl)-2-hydroxybenzamide] |
| – | – | – | 129.7 | – | CCC1(C)NC(=O)NC1=O (stereo not given) [5-Ethyl-5-methylhydantoin] |
| – | – | – | 115.4 | – | O=c1[nH]cc(F)c(=O)[nH]1 [5-Fluorouracil] |
| 139.3 | 140.3 | – | – | – | COc1c2ccoc2cc2oc(=O)ccc12 [5-Methoxypsoralen] |
| – | – | – | 136.9 | – | CC(C)CCCC(=O)O [5-Methylhexanoic acid] |
| 127.6 | – | – | – | – | CC1CCc2nccnc21 (stereo not given) [6,7-Dihydro-5-methyl-5H-cyclopentapyrazine] |
| – | – | – | 140.5 | – | Cc1cc(O)c(C(C)C)cc1Cl [6-Chlorothymol] |
| 134.5 | 134.8 | – | – | – | Cc1ccc2c(c1)CCCN2 [6-Methyl-1,2,3,4-tetrahydroquinoline] |
| – | – | – | 123.1 | – | Cc1cc(=O)[nH]c(=S)[nH]1 [6-Methyl-2-thiouracil] |
| 118.1 | 119.4 | – | 120.4 | – | Cc1ccc(O)cn1 [6-Methyl-3-hydroxypyridine] |
| – | – | – | 120.5 | – | Cc1cc(=O)[nH]c(=O)[nH]1 [6-Methyluracil] |
| – | – | – | 144.9 | – | Cc1cc(C)c(O)c(C(C)(C)C)c1 [6-tert-Butyl-2,4-xylenol] |
| 140.9 | 141.3 | 165.6 | 148.6 | – | Cc1cc(=O)oc2cc(N(C)C)ccc12 [7-(Dimethylamino)-4-methylcoumarin] |
| – | – | – | 153.3 | – | Nc1ccc2c(O)cc(S(=O)(=O)O)cc2c1 [7-Amino-4-hydroxynaphthalene-2-sulfonic acid] |
| 152.6 | 152.6 | 176.4 | 159.4 | – | CCN(CC)c1ccc2c(C)cc(=O)oc2c1 [7-Diethylamino-4-methylcoumarin] |
| – | 146.7 | – | 142.4 | – | O=S(=O)(O)c1ccc(O)c2ncccc12 [8-Hydroxyquinoline-5-sulfonic acid hydrate (1:x)] |
| – | 152 | – | – | – | CCn1c2ccccc2c2cc([N+](=O)[O-])ccc21 [9-Ethyl-3-nitro-9H-carbazole] |
| – | – | 225.6 | 212.9 | – | CCCCCC(=O)O[C@]1(C(C)=O)CC[C@H]2[C@@H]3CCC4=CC(=O)CC[C@]4(C)[C@H]3CC[C@@]21C [17-((1-Oxohexyl)oxy)pregn-4-ene-3,20-dione] |
| – | – | – | 182.3 | – | C#C[C@]1(O)CC[C@H]2[C@@H]3CCc4cc(O)ccc4[C@H]3CC[C@@]21C [17alpha-Ethinylestradiol] |
| – | – | – | 184.4 | – | CC(=O)[C@@]1(O)CC[C@H]2[C@@H]3CCC4=CC(=O)CC[C@]4(C)[C@H]3CC[C@@]21C [17alpha-Hydroxyprogesterone] |
| – | 185.7 | – | 186.5 | – | C[C@]12CC[C@H]3[C@@H](CCC4=CC(=O)CC[C@@]43C)[C@@H]1CC[C@@H]2C(=O)CO [21-Hydroxyprogesterone] |
| – | – | 181.5 | – | – | CC1(C)CCC[C@]2(C)[C@H]3CC(=O)O[C@]3(C)CC[C@@H]12 [(3aR)-(+)-Sclareolide] |
| – | – | 180.3 | 169.5 | – | CCCCC[C@H](O)CC(=O)CCc1ccc(O)c(OC)c1 [(6)-Gingerol] |
